According to PubChem BioAssay AID1963831 (Molecular Pharmacology Branch, DTP, NCI, 2024):

Tested on: 889142-216-R-J1-PDC complex spheroid viability
Assay: Anticancer human tumor 889142-216-R-J1-PDC patient-derived bladder carcinoma cell line growth inhibition [POLQ]
Conditions: for IC50: curve of first compound; for viability, T/C: stronger effect = lower value; active means viability on the fitted dose curve at most 10% of control; inactive means the rest
Procedure, shortened: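 Three-cell-type spheroids modelling solid tumor plus stroma served as the readout system; POL inhibitors were tested individually and in combination, concentration ranges set by clinical Cmax where known.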

[1] = second compound 0.0316 µM, first compound 0.0316 µM
[2] = second compound 0.0316 µM, first compound 0.1 µM
[3] = second compound 0.0316 µM, first compound 0.316 µM
[4] = second compound 0.0316 µM, first compound 1 µM
[5] = second compound 0.0316 µM, first compound 3.16 µM
[6] = second compound 0.0316 µM, first compound 10 µM
[7] = second compound 0.1 µM, first compound 0.0316 µM
[8] = second compound 0.1 µM, first compound 0.1 µM
[9] = second compound 0.1 µM, first compound 0.316 µM
[10] = second compound 0.1 µM, first compound 1 µM
[11] = second compound 0.1 µM, first compound 3.16 µM
[12] = second compound 0.1 µM, first compound 10 µM
[13] = second compound 0.316 µM, first compound 0.0316 µM
[14] = second compound 0.316 µM, first compound 0.1 µM
[15] = second compound 0.316 µM, first compound 0.316 µM
[16] = second compound 0.316 µM, first compound 1 µM
[17] = second compound 0.316 µM, first compound 3.16 µM
[18] = second compound 0.316 µM, first compound 10 µM
[19] = second compound 1 µM, first compound 0.0316 µM
[20] = second compound 1 µM, first compound 0.1 µM
[21] = second compound 1 µM, first compound 0.316 µM
[22] = second compound 1 µM, first compound 1 µM
[23] = second compound 1 µM, first compound 3.16 µM
[24] = second compound 1 µM, first compound 10 µM
[25] = second compound 3.16 µM, first compound 0.0316 µM
[26] = second compound 3.16 µM, first compound 0.1 µM
[27] = second compound 3.16 µM, first compound 0.316 µM
[28] = second compound 3.16 µM, first compound 1 µM
[29] = second compound 3.16 µM, first compound 3.16 µM
[30] = second compound 3.16 µM, first compound 10 µM
[31] = second compound 10 µM, first compound 0.0316 µM
[32] = second compound 10 µM, first compound 0.1 µM
[33] = second compound 10 µM, first compound 0.316 µM
[34] = second compound 10 µM, first compound 1 µM
[35] = second compound 10 µM, first compound 3.16 µM
[36] = second compound 10 µM, first compound 10 µM
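Further: spheroids exposed to compounds for seven days.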
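Wherever viability, T/C is given: 100% = DMSO vehicle control viability.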

C#Cc1c(F)ccc2cc(O)cc(-c3ncc4c(N5CC6CCC(C5)N6)nc(OCC56CCCN5CC(F)C6)nc4c3F)c12 (stereo unspecified) + Nc1ccc(C#CCN(C(=O)Cc2ncc(C(F)(F)F)cc2C(F)(F)F)c2ccc(F)cc2)nn1
7.63 µM: IC50 (second compound 0.1 µM)
7.61 µM: IC50 (second compound 10 µM)
inactive: viability, T/C [1] 101% | viability, T/C [2] 102% | viability, T/C [3] 75% | viability, T/C [4] 74.6% | viability, T/C [5] 84.8% | viability, T/C [6] 43.9% | viability, T/C [7] 103% | viability, T/C [8] 119% | viability, T/C [9] 85.3% | viability, T/C [10] 79% | viability, T/C [11] 86.6% | viability, T/C [12] 38.9% | viability, T/C [13] 115% | viability, T/C [14] 99.4% | viability, T/C [15] 73.5% | viability, T/C [16] 116% | viability, T/C [17] 69.8% | viability, T/C [18] 49.7% | viability, T/C [19] 115% | viability, T/C [20] 102% | viability, T/C [21] 95.8% | viability, T/C [22] 76.7% | viability, T/C [23] 65.3% | viability, T/C [24] 52.5% | viability, T/C [25] 94% | viability, T/C [26] 98.1% | viability, T/C [27] 90.3% | viability, T/C [28] 131% | viability, T/C [29] 70.3% | viability, T/C [30] 63.8% | viability, T/C [31] 120% | viability, T/C [32] 81.6% | viability, T/C [33] 108% | viability, T/C [34] 75.5% | viability, T/C [35] 90.5% | viability, T/C [36] 38.8%
> 10 µM: IC50 (second compound 0.0316 µM) | IC50 (second compound 0.316 µM) | IC50 (second compound 1 µM) | IC50 (second compound 3.16 µM)

C=CCn1c(=O)c2cnc(Nc3ccc(N4CCN(C)CC4)cc3)nc2n1-c1cccc(C(C)(C)O)n1 + Nc1ccc(C#CCN(C(=O)Cc2ncc(C(F)(F)F)cc2C(F)(F)F)c2ccc(F)cc2)nn1
> 1 µM: IC50 (second compound 0.0316 µM) | IC50 (second compound 0.1 µM) | IC50 (second compound 0.316 µM) | IC50 (second compound 1 µM) | IC50 (second compound 3.16 µM) | IC50 (second compound 10 µM)
inactive: viability, T/C (second compound 0.0316 µM, first compound 0.00316 µM) 113% | viability, T/C (second compound 0.0316 µM, first compound 0.01 µM) 118% | viability, T/C [1] 88.4% | viability, T/C [2] 87.2% | viability, T/C [3] 74.8% | viability, T/C [4] 58.2% | viability, T/C (second compound 0.1 µM, first compound 0.00316 µM) 114% | viability, T/C (second compound 0.1 µM, first compound 0.01 µM) 119% | viability, T/C [7] 108% | viability, T/C [8] 85.1% | viability, T/C [9] 64.5% | viability, T/C [10] 56.2% | viability, T/C (second compound 0.316 µM, first compound 0.00316 µM) 106% | viability, T/C (second compound 0.316 µM, first compound 0.01 µM) 79.1% | viability, T/C [13] 78% | viability, T/C [14] 80.7% | viability, T/C [15] 72.5% | viability, T/C [16] 62.4% | viability, T/C (second compound 1 µM, first compound 0.00316 µM) 101% | viability, T/C (second compound 1 µM, first compound 0.01 µM) 83.8% | viability, T/C [19] 99.4% | viability, T/C [20] 78.4% | viability, T/C [21] 81.1% | viability, T/C [22] 58.9% | viability, T/C (second compound 3.16 µM, first compound 0.00316 µM) 98.9% | viability, T/C (second compound 3.16 µM, first compound 0.01 µM) 87.4% | viability, T/C [25] 98.1% | viability, T/C [26] 90.3% | viability, T/C [27] 84.5% | viability, T/C [28] 59.1% | viability, T/C (second compound 10 µM, first compound 0.00316 µM) 97.4% | viability, T/C (second compound 10 µM, first compound 0.01 µM) 96% | viability, T/C [31] 107% | viability, T/C [32] 102% | viability, T/C [33] 66.4% | viability, T/C [34] 54.6%

C=CC(=O)N1CCN(c2nc(=O)n(-c3c(C)ccnc3C(C)C)c3nc(-c4c(O)cccc4F)c(F)cc23)C(C)C1 (stereo unspecified) + Nc1ccc(C#CCN(C(=O)Cc2ncc(C(F)(F)F)cc2C(F)(F)F)c2ccc(F)cc2)nn1
> 10 µM: IC50 (second compound 0.0316 µM) | IC50 (second compound 0.1 µM) | IC50 (second compound 0.316 µM) | IC50 (second compound 1 µM) | IC50 (second compound 3.16 µM) | IC50 (second compound 10 µM)
inactive: viability, T/C [1] 95.4% | viability, T/C [2] 111% | viability, T/C [3] 87.8% | viability, T/C [4] 121% | viability, T/C [5] 133% | viability, T/C [6] 93.6% | viability, T/C [7] 103% | viability, T/C [8] 89.2% | viability, T/C [9] 109% | viability, T/C [10] 129% | viability, T/C [11] 111% | viability, T/C [12] 102% | viability, T/C [13] 135% | viability, T/C [14] 127% | viability, T/C [15] 96.3% | viability, T/C [16] 96.5% | viability, T/C [17] 145% | viability, T/C [18] 111% | viability, T/C [19] 113% | viability, T/C [20] 86% | viability, T/C [21] 120% | viability, T/C [22] 121% | viability, T/C [23] 116% | viability, T/C [24] 100% | viability, T/C [25] 126% | viability, T/C [26] 88.3% | viability, T/C [27] 119% | viability, T/C [28] 88.8% | viability, T/C [29] 119% | viability, T/C [30] 104% | viability, T/C [31] 99.5% | viability, T/C [32] 114% | viability, T/C [33] 121% | viability, T/C [34] 95.1% | viability, T/C [35] 126% | viability, T/C [36] 131%
